Measurements from PubChem BioAssay (NCI).
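Tested at 5 concentrations; 48 h exposure; 96-well plates; endpoints linearly interpolated, else capped at highest concentration. GI50: concentration for 50% inhibition of growth. The concentration for full growth arrest is given as TGI.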

What was measured:
Assay in all cases: NCI anticancer screen, dose series, 48 h
[1] = system: HOP-92 NSCLC
[2] = system: SF-539 CNS
[3] = system: K-562 leukemia
[4] = system: ACHN renal
[5] = system: SF-268 CNS
[6] = system: NCI-H23 lung
[7] = system: UO-31 renal
[8] = system: NCI/ADR-RES ovarian
[9] = system: KM12 colon
[10] = system: HCC-2998 colon

Compound	TGI [1]	TGI [2]	TGI [3]	TGI [4]	TGI [5]	TGI [6]	TGI [7]	TGI [8]	TGI [9]	TGI [10]	GI50 [1]	GI50 [8]	GI50 [2]	GI50 [4]	GI50 [5]	GI50 [9]	GI50 [6]	GI50 [7]
O=C(O)CN(c1ccccc1)S(=O)(=O)c1ccc(Cl)cc1	> 100 µM	> 100 µM	> 100 µM	> 100 µM	> 100 µM	> 100 µM	> 100 µM	–	–	–	–	–	–	–	–	–	–	–
COc1ccc(C(=O)C(Br)C(Br)C(=O)O)cc1 (configuration not stated)	> 100 µM	51.8 µM	82.9 µM	> 100 µM	> 100 µM	> 100 µM	–	> 100 µM	> 100 µM	–	–	–	–	–	–	–	–	–
CC1=C(/C=C/C2=CC(=C\C(=O)O)/CC(C3=C(C)CCCC3(C)C)C2)C(C)(C)CCC1 (configuration not stated)	23.7 µM	30.6 µM	–	22.2 µM	36.1 µM	27.6 µM	22.5 µM	–	24.1 µM	–	–	–	–	–	–	–	–	–
O=C1NC(=O)C(=O)C(c2nc3ccccc3s2)C1=O	> 100 µM	> 100 µM	–	> 100 µM	> 100 µM	> 100 µM	> 100 µM	–	> 100 µM	> 100 µM	–	–	–	–	–	–	–	–
O=C(N/C(=C\c1ccc([N+](=O)[O-])cc1)c1nc2ccc(Cl)cc2[nH]1)c1ccccc1	34.3 µM	40.7 µM	52.7 µM	66.8 µM	42.8 µM	44.6 µM	33.5 µM	–	61.4 µM	33.8 µM	–	–	–	–	–	–	–	–
O=S1c2ccccc2N=C(c2ccc(Cl)cc2)CC1c1cccs1 (configuration not stated)	72.5 µM	32.5 µM	61 µM	> 100 µM	> 100 µM	85.3 µM	51.6 µM	–	33.8 µM	36.9 µM	–	–	–	–	–	–	–	–
CCOC(=O)/C(C#N)=C\C=C1/C=CNC2=NCCN21	–	> 100 µM	> 100 µM	> 100 µM	> 100 µM	> 100 µM	> 100 µM	–	> 100 µM	> 100 µM	–	–	–	–	–	–	–	–
Cc1ccc(NC(=O)CC/C(CC(=O)c2ccc(Cl)cc2)=N\NC(=O)C(=O)NN)cc1C	–	> 100 µM	> 100 µM	> 100 µM	> 100 µM	> 100 µM	> 100 µM	–	> 100 µM	> 100 µM	–	–	–	–	–	–	–	–
O=C(O)CCSC(=O)Nc1cccc([N+](=O)[O-])c1	–	> 100 µM	> 100 µM	> 100 µM	64.8 µM	> 100 µM	> 100 µM	–	> 100 µM	> 100 µM	–	–	–	–	–	–	–	–
C[C@]12CC(C#N)C(=O)C(O)=C1CC[C@@H]1C2CC[C@@]2(C)C1CC[C@@H]2O (some centres not stated)	76.4 µM	> 100 µM	> 100 µM	> 100 µM	> 100 µM	> 100 µM	87.3 µM	–	> 100 µM	> 100 µM	–	–	–	–	–	–	–	–
CC(=O)NC1C(OCc2ccccc2)OC(COC(=O)CCCCCNc2ccc([N+](=O)[O-])c3[nH]c4ccc(O)cc4c(=O)c23)C(O)C1OC(C)C(=O)N[C@@H](C)C(=O)N[C@H](CCC(=O)OCc1ccccc1)C(N)=O (some centres not stated)	3.61 µM	15.4 µM	> 100 µM	34.5 µM	9.41 µM	3.14 µM	–	–	–	10.9 µM	–	–	–	–	–	–	–	–
C[C@@H](NC1CCC[C@@H]1O)c1ccccc1 (some centres not stated)	> 100 µM	–	> 100 µM	> 100 µM	–	–	> 100 µM	–	> 100 µM	> 100 µM	–	–	–	–	–	–	–	–
C=CCCC(C)N(C(=O)OC(C)(C)C)S(=O)(=O)c1ccc(C)cc1 (configuration not stated)	> 100 µM	> 100 µM	> 100 µM	> 100 µM	> 100 µM	> 100 µM	> 100 µM	–	> 100 µM	> 100 µM	–	–	–	–	–	–	–	–
COc1cc2ccnc3c2c(c1OC)CC1CC(O)C(OC)CC31 (configuration not stated)	81.2 µM	55.4 µM	> 100 µM	> 100 µM	–	> 100 µM	> 100 µM	–	> 100 µM	> 100 µM	–	–	–	–	–	–	–	–
CN(C)Cc1cccc(CN(C)C)[c]1[Sn]([Br])([c]1ccccc1)[c]1ccccc1	9.74 µM	30.3 µM	–	40.4 µM	17.5 µM	46.3 µM	26.8 µM	> 100 µM	28.1 µM	–	2.15 µM	44 µM	15.2 µM	19.1 µM	3.77 µM	11 µM	13.5 µM	13.1 µM
COc1ccc(-c2nc(N)c3ncn(C4OC(CO)C(O)C4O)c3n2)cc1 (configuration not stated)	> 100 µM	> 100 µM	> 100 µM	> 100 µM	> 100 µM	> 100 µM	–	> 100 µM	> 100 µM	–	–	–	–	–	–	–	–	–
NNC(=O)CCC(=O)Nc1ccc(Cl)cc1Cl	> 100 µM	> 100 µM	> 100 µM	> 100 µM	> 100 µM	> 100 µM	> 100 µM	–	> 100 µM	> 100 µM	–	–	–	–	–	–	–	–

Compound	TGI [1]	TGI [2]	TGI [3]	TGI [4]	TGI [5]	TGI [6]	TGI [7]	TGI [8]	TGI [9]	TGI [10]	GI50 [1]	GI50 [8]	GI50 [2]	GI50 [4]	GI50 [5]	GI50 [9]	GI50 [6]	GI50 [7]
CC(C)Cc1ccc(C(C)/C=C2\CCC(CN3CCCC3)C2=O)cc1 (configuration not stated)	38 µM	15.4 µM	> 100 µM	24.3 µM	12.3 µM	26.6 µM	29.5 µM	–	7.74 µM	19.3 µM	–	–	–	–	–	–	–	–
COc1cc([C@@H]2c3cc4c(cc3[C@@H](NCc3ccc(C#N)cc3)C3COC(=O)[C@@H]32)OCO4)cc(OC)c1O (some centres not stated)	49.4 µM	2.36 µM	15.9 µM	1.55 µM	6.6 µM	1.43 µM	4.34 µM	–	3.78 µM	3.69 µM	–	–	–	–	–	–	–	–
CCCC1C(=O)C(CC)Cc2c(OC)ccc(OC)c21 (configuration not stated)	> 100 µM	> 100 µM	> 100 µM	> 100 µM	> 100 µM	–	> 100 µM	–	> 100 µM	> 100 µM	–	–	–	–	–	–	–	–
c1ccc(/N=C2\c3ccccc3CN2c2ccccn2)nc1	72.7 µM	> 100 µM	> 100 µM	> 100 µM	> 100 µM	> 100 µM	> 100 µM	–	> 100 µM	> 100 µM	–	–	–	–	–	–	–	–
CCCCCCCC(=O)OCC1OC(n2cc(F)c(=O)[nH]c2=O)C(NC(=O)OCc2ccccc2)C(OC(=O)CCCCCCC)C1O (configuration not stated)	61.4 µM	74.4 µM	61.8 µM	> 100 µM	> 100 µM	> 100 µM	0.865 µM	–	> 100 µM	> 100 µM	–	–	–	–	–	–	–	–
CC([C@H]1CCC2C3CCC4CC5(CC[C@]4(C)C3CC[C@@]21C)c1ccccc1C(=O)N5C)N(C)C (some centres not stated)	> 100 µM	71.8 µM	92.2 µM	> 100 µM	> 100 µM	> 100 µM	50.2 µM	–	> 100 µM	> 100 µM	–	–	–	–	–	–	–	–
O=C(c1cc2c(C(F)(F)F)onc2c2ccccc12)C(F)(F)F	4.99 µM	15.8 µM	> 40 µM	14 µM	19.9 µM	4.25 µM	9.52 µM	–	52.9 µM	60.4 µM	–	–	–	–	–	–	–	–
CC(=O)O[C@H]1CCC2[C@@H]3CCC4Nc5c(cnn5-c5ccccc5)C[C@]4(C)C3CC[C@@]21C (some centres not stated)	–	54.9 µM	74.3 µM	48.1 µM	> 100 µM	21.2 µM	22.9 µM	–	37.8 µM	25.3 µM	–	–	–	–	–	–	–	–
CCC(O)(c1ccc(OC)cc1)C(c1ccc(OCc2ccccc2)cc1)c1ccc(OCc2ccccc2)cc1 (configuration not stated)	> 100 µM	> 100 µM	> 100 µM	> 100 µM	> 100 µM	> 100 µM	> 100 µM	–	> 100 µM	> 100 µM	–	–	–	–	–	–	–	–
O=C(COc1ccc(Cl)cc1)N1N=C(c2ccc([N+](=O)[O-])o2)CC1(O)c1ccccc1 (configuration not stated)	37.7 µM	26.9 µM	29.7 µM	–	33.4 µM	6.73 µM	23.6 µM	–	27.7 µM	16.1 µM	–	–	–	–	–	–	–	–
COc1cc2ccc(/C(C)=N/OC(C)=O)cc2cc1OC	> 100 µM	> 100 µM	> 100 µM	> 100 µM	> 100 µM	> 100 µM	99.6 µM	–	> 100 µM	–	–	–	–	–	–	–	–	–
C/C(=N\NS(=O)(=O)c1ccc(C)cc1)c1c(O)cc(C)oc1=O	> 100 µM	> 100 µM	> 100 µM	> 100 µM	> 100 µM	> 100 µM	> 100 µM	–	> 100 µM	> 100 µM	–	–	–	–	–	–	–	–
Cc1[nH]c2ccccc2c1C1CC(=O)NC1=O (configuration not stated)	–	> 100 µM	> 100 µM	> 100 µM	–	> 100 µM	> 100 µM	–	> 100 µM	> 100 µM	–	–	–	–	–	–	–	–
CC(Oc1ccc(OCC2CCCCC2)cc1)C(=O)O (configuration not stated)	–	> 100 µM	> 100 µM	> 100 µM	> 100 µM	> 100 µM	> 100 µM	–	> 100 µM	–	–	–	–	–	–	–	–	–
CCN(CC)CCOC(=O)/C(=C/c1ccc(OC)cc1)c1cc(OC)c(OC)c(OC)c1	54.1 µM	10.8 µM	27.9 µM	> 100 µM	> 100 µM	–	31.9 µM	–	16 µM	–	–	–	–	–	–	–	–	–
CC(C)c1cccc(C(C)C)c1N=C(N)C#N	> 100 µM	50 µM	> 61.7 µM	> 100 µM	> 100 µM	> 100 µM	> 100 µM	–	> 100 µM	> 100 µM	–	–	–	–	–	–	–	–
CCN(CC)C(=O)CNC(=O)OC(C)(C)C	> 100 µM	> 100 µM	> 100 µM	> 100 µM	> 100 µM	> 100 µM	> 100 µM	–	> 100 µM	> 100 µM	–	–	–	–	–	–	–	–
